# Assay results: US20260258051A1, “Camptothecin Compound, Preparation Method Therefor and Use Thereof” (SICHUAN KELUN-BIOTECH BIOPHARMACEUTICAL CO., LTD., priority 2022, published 2026)
# Tests used:
# HT29 cells = experiment: Inhibitory effect on HT29 cell proliferation; assay type: cell-based; conditions: Homo sapiens, HT-29; HT29, 72 h incubation, Cell Counting-Lite 2.0
# Experimental: (1) Cell plating: First, tumor cells HT29 were cultured with corresponding culture medium, the cells were digested with trypsin and centrifuged, then the cells were resuspended and counted, and the cells were adjusted to an appropriate concentration for plating.
# (§1) Co-incubation of the compounds of the present invention and tumor cells: 90 μL of cell suspension was added to 96-well plates respectively. After cell adherence, 10 μL of bioactive molecules (compounds of the present invention) diluted with culture medium were added into the wells of the above plates, and incubated for 72 h.
# (§2) In vitro cell viability detection: After the incubation, 50 μL of Cell Counting-Lite™ 2.0 reagent (Vazyme) was added to each well, shaken and mixed well in the dark, and reacted for 10 minutes before testing. Microplate reader (manufacturer: BMG, Model: PHERA Star-FS) was used for reading. The culture wells without cells were used as the background RLU, and the culture wells with cells but no compound were used as the cell control RLU. Cell inhibition rate=1−(sample RLU−background RLU)/(cell control RLU−background RLU)×100%. The half-inhibition concentration (IC50) of compound was calculated by fitting the curve according to the four-parameter model.
# HCC1806 cells = experiment: Inhibitory effect on HCC1806 cell proliferation; assay type: cell-based; conditions: Homo sapiens; HCC1806, 72 h incubation, Cell Counting-Lite 2.0
# Experimental: (1) Cell plating: First, tumor cells HCC1806 were cultured with corresponding culture medium, the cells were digested with trypsin and centrifuged, then the cells were resuspended and counted, and the cells were adjusted to an appropriate concentration for plating.
# as §1, §2
# NCI-H358 cells = experiment: Inhibitory effect on NCI-H358 cell proliferation; assay type: cell-based; conditions: Homo sapiens; NCI-H358, 72 h incubation, Cell Counting-Lite 2.0
# Experimental: (1) Cell plating: First, tumor cells NCI-H358 were cultured with corresponding culture medium, the cells were digested with trypsin and centrifuged, then the cells were resuspended and counted, and the cells were adjusted to an appropriate concentration for plating.
# as §1, §2
# NCI-N87 cells = experiment: Inhibitory effect on NCI-N87 cell proliferation; assay type: cell-based; conditions: Homo sapiens, NCI-N87, 72 h, read-out: IC50 (nM), inhibitory activity on NCI-N87 cell proliferation
# Experimental: (1) Cell plating: First, tumor cells NCI-N87 were cultured with corresponding culture medium, the cells were digested with trypsin and centrifuged, then the cells were resuspended and counted, and the cells were adjusted to an appropriate concentration for plating.
# as §1, §2
# MDA-MB-231 cells = experiment: Inhibitory effect on MDA-MB-231 cell proliferation; assay type: cell-based; conditions: Homo sapiens; MDA-MB-231, 72 h incubation, Cell Counting-Lite 2.0
# Experimental: (1) Cell plating: First, tumor cells MDA-MB-231 were cultured with corresponding culture medium, the cells were digested with trypsin and centrifuged, then the cells were resuspended and counted, and the cells were adjusted to an appropriate concentration for plating.
# as §1, §2
# Jeko-1 cells = experiment: Inhibitory effect on Jeko-1 cell proliferation; assay type: cell-based; conditions: Homo sapiens; Jeko-1, 72 h incubation, Cell Counting-Lite 2.0
# Experimental: (1) Cell plating: First, tumor cells Jeko-1 were cultured with corresponding culture medium, the cells were resuspended and counted, and finally the cells were adjusted to an appropriate concentration for plating.
# as §1, §2
# MDA-MB-453 cells = experiment: Inhibitory effect on MDA-MB-453 cell proliferation; assay type: cell-based; conditions: Homo sapiens; MDA-MB-453, 72 h incubation, Cell Counting-Lite 2.0
# Experimental: (1) Cell plating: First, tumor cells MDA-MB-453 were cultured with corresponding culture medium, the cells were digested with trypsin and centrifuged, then the cells were resuspended and counted, and the cells were adjusted to an appropriate concentration for plating.
# as §1, §2
# [1] = Permeability test in MDCK cell model; assay type: in vitro ADME; conditions: dog; for efflux ratio at 120 min, 2 μM: pH 7.4, 2.00 μM, Papp(B→A)/Papp(A→B), absence of P-gp inhibitor, read-out: Efflux ratio (ERa); for Papp A→B at 120 min, 2 μM / Papp B→A at 120 min, 2 μM: pH 7.4, concentration 2.00 μM; for Papp A→B at 120 min, 2 μM: A to B, read-out: Papp A to B; for Papp B→A at 120 min, 2 μM: B to A, read-out: Papp B to A
# Experimental: (§3) The MDCK cell model was used to evaluate the permeability of the compounds, the LC-MS/MS method was used to determine the concentration of the substance to be tested, and the apparent permeability coefficient (Papp) and efflux ratio were calculated [Efflux ratio=Papp(B→A)/Papp(A→B)].
# (§4) Complete culture medium: 10% fetal bovine serum and 1% penicillin/streptomycin were added to MEM culture medium.
# (§5) Digestive solution: 0.05% trypsin-EDTA.
# (§6) HBSS buffer: HBSS containing Ca^2+, Mg^2+.
# (§7) Permeating solution: HBSS containing 10 mM Hepes, 4% BSA, pH 7.4.
# (§8) Compound stock solution: a certain amount of the compound to be tested was weighed and formulated with DMSO to prepare a 10 mM stock solution.
# (§9) MDCK cells (26th generation) in the logarithmic growth phase were digested and dispersed evenly with 0.05% trypsin-EDTA, and then inoculated into the Transwell chamber at 3*10^5 cells/cm^2, with 200 μL on the A side and 1000 μL on the B side. After inoculation, the medium was changed once every day and the culturing was carried out for 3 to 4 days.
# (§10) The cell culture medium was discarded by pipetting, then washing was carried out three times with the permeating solution. 200 μL of permeating solution was added to A side and 1000 μL of permeating solution was added to B side. A voltage resistance meter was used to measure the cell transmembrane resistance (TEER). After the TEER value of the cells was measured, the permeating solution on both sides was discarded by pipetting, and the solution was added. After 120 minutes, 150 μL of samples were taken from A side and B side, respectively, and frozen at −80° C. before testing. Then, 10 μg/ml Fluorescent Yellow was added to A side. After incubation for 30 minutes, 100 μL of solution at B side was pipetted and added into a 96-well white plate. The fluorescence value was measured at the wavelengths of Ex=485 nm and Em=530 nm using a microplate reader, and the permeance was calculated (which was less than 1%).
# (§11) 80 μL of the compound to be tested was taken, added to 320 μL of acetonitrile solution containing internal standard (30 ng/mL Tolbutamide), vortexed, and centrifuged for 10 min (4000 rpm, 4° C.), and the supernatant was taken for LC-MS/MS analysis.
# (§12) Excel 2013 was used to calculate Papp values and Papp ratio of B side→A side to A side→B side, and the recovery rates of each Control Compound and the compound to be tested were calculated.
# (§13) Apparent permeability coefficient (Papp) of compound was calculated according to the following formula:
# (§14) C0 was the initial concentration (μM) of the drug to be tested at the donor, (dCr/dt)×Vr was the rate (μM/s) at which the drug to be tested appeared at the receiver, Vr was the solution volume (mL) at the receiver, and A was the surface area (cm^2) of polycarbonate membrane.
# (§15) Evaluation criteria: Low permeability: Papp≤0.5 (×10^−6 cm/s) • Medium permeability: 0.5<Papp<2.5 (×10^−6 cm/s) • High permeability: Papp≥2.5 (×10^−6 cm/s)
# (§16) Efflux ratio (ER) was calculated according to Papp:
# (§17) [formula] • wherein, Papp(B→A) was the apparent permeability coefficient of the drug to be tested from the BL (baso-lateral) end to the AP (apical) end, and Papp (A→B) was the apparent permeability coefficient of the drug to be tested from the AP end to the BL end.
# (§18) • Probably being an efflux transporter substrate (Probably): ERa≥2 and ERa/ERi>2 • Likely being an efflux transporter substrate (Likely): ERa≥2 • Unlikely or impossibly being an efflux transporter substrate (Poor or non): ERa<2 • wherein, ERi and ERa were the efflux ratios of the compound to be tested in the presence and absence of P-gp inhibitor, respectively.
# MDCK cells = experiment: Permeability test in MDCK cell model; assay type: in vitro ADME; conditions: 2.00 μM
# Experimental: as §3, §4, §5, §6, §7, §8, §9, §10, §11, §12, §13, §14, §15, §16, §17, §18
SMILES,IC50 (HT29 cells) [nM],IC50 (HCC1806 cells) [nM],IC50 (NCI-H358 cells) [nM],IC50 (NCI-N87 cells) [nM],IC50 (MDA-MB-231 cells) [nM],IC50 (Jeko-1 cells) [nM],IC50 (MDA-MB-453 cells) [nM],"efflux ratio at 120 min, 2 μM [1]","Papp A→B at 120 min, 2 μM [1] [×10⁻⁶ cm/s]","Papp B→A at 120 min, 2 μM [1] [×10⁻⁶ cm/s]",Efflux transporter substrate evaluation from efflux ratio (MDCK cells),Permeability class according to the Papp(A→B) results (MDCK cells)
"CC[C@@]1(O)C(=O)OCc2c1cc1n(c2=O)Cc2c-1nc1cc(F)c(C)c3c1c2[C@@H](NS(N)(=O)=O)CC3 [Compound 7-1, (1S,9S)-1-sulfamoylamido-9-ethyl-5-fluoro-9-hydroxy-4-methyl-1,2,3,9,12,15-hexahydro-10H,13H-benzo[de]pyranol[3′,4′:6,7]indolizino[1,2-b]quinolin-10,13-dione]",10.1,3.67,268,31.3,31,4.07,50.2,,,,,
"CC[C@@]1(O)C(=O)OCc2c1cc1n(c2=O)Cc2c-1nc1cc(F)c(C)c3c1c2[C@@H](NC(N)=O)CC3 [Compound 7-2, 1-((1S,9S)-9-ethyl-5-fluoro-9-hydroxy-4-methyl-10,13-dioxy-2,3,9,10,13,15-hexahydro-1H,12H-benzo[de]pyrano[3′,4′:6,7]indolizino[1,2-b]quinolin-1-yl)urea]",22.8,18.6,287,80.8,30.6,2.17,203,,,,,
"CC[C@@]1(O)C(=O)OCc2c1cc1n(c2=O)Cc2c-1nc1cc(F)c(C)cc1c2CN [Control Compound 1, reference compound]",,,,,,,,2.06,1.31,2.71,could be efflux transporter substrates,medium-permeability
"CC[C@@]1(O)C(=O)OCc2c1cc1n(c2=O)Cc2c-1nc1cc(F)c(C)cc1c2CNC(=O)CO [Control Compound 2, reference compound]",,,,,,,,28,0.01,0.4,could be efflux transporter substrates,low-permeability
"CC[C@@]1(O)C(=O)OCc2c1cc1n(c2=O)Cc2c-1nc1cc(F)c(C)c3c1c2[C@@H](NC(=O)CO)CC3 [Control Compound 3, reference compound]",,,,,,,,15.2,0.31,4.65,could be efflux transporter substrates,low-permeability
